Data on ten compounds can be found in PMC8953856, “α/β-Peptides as Nanomolar Triggers of Lipid Raft-Mediated Endocytosis through GM1 Ganglioside Recognition” (Pharmaceutics, 2022).

Series [1] is described as follows: Protease assay with trypsin. It is filed as in vitro ADME. The following applies: trypsin (isolated protease) in buffer; 100 mM TRIS–HCl pH 8.0 without CaCl2; peptide 100 mM (so in the source); protease stock 0.5 mg/mL; samples at 2, 6, 25, 60 min; HPLC–MS; < 24 = peak not detected at 2 min, 3% detection limit.
Series [2] in a line: Protease assay with chymotrypsin. It is filed as in vitro ADME. The following applies: chymotrypsin (isolated protease) in buffer; 100 mM TRIS–HCl pH 8.0 with 10 mM CaCl2; peptide 100 mM (so in the source); 50 mL of 0.5 mg/mL chymotrypsin stock to 500 mL peptide solution (so in the source); samples at 2, 6, 25, 60 min; HPLC–MS; < 24 = peak not detected at 2 min, 3% detection limit. The protocol: (§1) Protease assays: Peptides were dissolved in 100 mM TRIS–HCl buffer (pH 8.0) containing 10 mM CaCl2 at 100 mM concentration. Chymotrypsin (Sigma-Aldrich, Budapest, Hungary) stock solution was 0.5 mg/mL in the same buffer. A total […] peptide solution was measured in a reaction vessel and […] protease stock was added. Samples of […] were taken after 2, 6, 25 and 60 min. The samples were diluted into […] 5% TFA aliquots. The samples were then injected into HPLC–MS using a Phenomenex C18-XB Peptide column (250 × 4.6 mm, […]).

Series [3] addresses T1, Chymotrypsin (Bos taurus, UniProt P00766).
T1 construct: purchased Sigma-Aldrich
The experiment in a line: Protease assay with chymotrypsin. It is filed as in vitro ADME. The following applies: chymotrypsin (isolated protease) in buffer; 100 mM TRIS–HCl pH 8.0 with 10 mM CaCl2; peptide 100 mM (so in the source); 50 mL of 0.5 mg/mL chymotrypsin stock to 500 mL peptide solution (so in the source); samples at 2, 6, 25, 60 min; HPLC–MS; < 24 = peak not detected at 2 min, 3% detection limit. The protocol:
as §1

Series [4] concerns the target ganglioside GM1. Nature of the series: Isothermal titration calorimetry (ITC) with GM1:DPC 1:5 bicelles. Type of series: binding. The following applies: 35 °C, GM1:DPC 1:5 (GM1 300 µM in syringe) injected into 15 µM ligand in cell, pH 7.2 phosphate buffer, one- or two-site fit, experiments repeated twice; for pKd: read-out: Binding affinities (KD) to ganglioside GM1. On the procedure:
Isothermal Titration Calorimetry: ITC was performed using a MicroCal VP-ITC microcalorimeter at 35 °C. The monosialoganglioside GM1 was obtained from Biosynth-Carbosynth (Bratislava, Slovakia, product code: OG03918, C73H131N3O31·xNa, HPLC purity > 95%). The n-dodecylphosphocholine (DPC) was obtained from Avanti (Alabaster, Alabama, product code: 850336, C17H38NO4P, purity > 99%). In individual titrations, 15 µL of solution containing GM1:DPC 1:5 was injected into the ligand solution in the cell from a computer-controlled 300 µL microsyringe at time intervals of 300 s. The GM1:DPC micelle mixture was prepared in the same pH 7.2 phosphate buffer as the ligand in the cell. The concentration of the ligand in the cell was 15 µM. The concentration of GM1 in the syringe was 300 µM. In control experiments, GM1:DPC was titrated into the cell containing buffer without ligand. To rule out lipid clustering, control measurements were performed with pure GM1 in the syringe, which yielded a […], indicating the GM1:DPC interaction in the micelles (Figure S6). No aggregation of the micelles was observed after titration, which rules out any secondary inter-particle effects induced by ligand binding. We note that such an uncontrolled aggregation phenomenon would have been detrimental to the very sensitive ITC detection. Our finding is in agreement with the literature results that mixed micelles of GM1 and DPC are readily formed. The experiments were repeated twice. The experimental data were fitted to one-binding-site or two-independent-site models with adjustable parameters of ΔHb1, Kd1, n1, and ΔHb2, Kd2, n2, respectively. Background subtraction and spline baseline correction was applied prior to the application of a generalized reduced gradient nonlinear least-squares procedure. […] Errors were estimated by using jack-knife resampling.
(In general: In ITC the heat of successive injections is recorded.)

pKd: −log10 of the molar value. No end group written: not given here.

By half-life is commonly meant the time in which the quantity being followed falls by half. `NCCCC[C@H](NC(=O)[C@H](Cc1ccc(O)cc1)NC(=O)[C@@H](N)Cc1c[nH]c2ccccc12)C(=O)N[C@@H](Cc1ccc(O)cc1)C(=O)N[C@H](CC(N)=O)Cc1c[nH]c2ccccc12` [WYKYWβ]: the half-life in series [1] and in series [2] was less than 0.4 min in each case. Consider `NCCCC[C@H](NC(=O)[C@H](Cc1ccc(O)cc1)NC(=O)[C@@H](N)Cc1c[nH]c2ccccc12)C(=O)N[C@H](CC(=O)N[C@@H](Cc1c[nH]c2ccccc12)C(N)=O)Cc1ccc(O)cc1` [WYKYβW], for which the values for the half-life in series [1] and in series [2] were 6.83 min and less than 0.4 min, respectively. Turning to `NCCCC[C@@H](CC(=O)N[C@@H](Cc1ccc(O)cc1)C(=O)N[C@@H](Cc1c[nH]c2ccccc12)C(N)=O)NC(=O)[C@H](Cc1ccc(O)cc1)NC(=O)[C@@H](N)Cc1c[nH]c2ccccc12` [WYKβYW], the half-life in series [3] is 10.8 min.

For `NCCCC[C@H](NC(=O)C[C@H](Cc1ccc(O)cc1)NC(=O)[C@@H](N)Cc1c[nH]c2ccccc12)C(=O)N[C@@H](Cc1ccc(O)cc1)C(=O)N[C@@H](Cc1c[nH]c2ccccc12)C(N)=O` [WYβKYW], the half-life in series [1] is 15 min; in series [3], 1.25 min.

Take `NCCCC[C@H](NC(=O)[C@H](Cc1ccc(O)cc1)NC(=O)C[C@@H](N)Cc1c[nH]c2ccccc12)C(=O)N[C@@H](Cc1ccc(O)cc1)C(=O)N[C@@H](Cc1c[nH]c2ccccc12)C(N)=O` [WβYKYW]: the half-life was 1.83 min in series [1] and less than 0.4 min in series [2]. Consider “AYKYW [Ala derivative of WYKYW, position 1]”, for which the “Binding affinities (KD) to ganglioside GM1” value in series [4] was “n.f. ^[a]”.

Usually pKd stands for −log10 of the Kd, conventionally taken in molar units. Regarding WAKYW-NH2 [WAKYW], the pKd in series [4] was 5.24. Same read-out and setting: the result for WYAYW-NH2 [WYAYW] reads 4.98; that for WYKAW-NH2 [WYKAW], 5.77; that for WYKYA-NH2 [WYKYA], 5.97.
